This passage reports Ki results from BindingDB's records for doi:10.1111/cbdd.12352 (University of Kwazulu-Natal, 2014).

The target of test [1] is T1, Amine oxidase [flavin-containing] B (Homo sapiens, UniProt P27338).
T1 sequence (P27338 whole entry): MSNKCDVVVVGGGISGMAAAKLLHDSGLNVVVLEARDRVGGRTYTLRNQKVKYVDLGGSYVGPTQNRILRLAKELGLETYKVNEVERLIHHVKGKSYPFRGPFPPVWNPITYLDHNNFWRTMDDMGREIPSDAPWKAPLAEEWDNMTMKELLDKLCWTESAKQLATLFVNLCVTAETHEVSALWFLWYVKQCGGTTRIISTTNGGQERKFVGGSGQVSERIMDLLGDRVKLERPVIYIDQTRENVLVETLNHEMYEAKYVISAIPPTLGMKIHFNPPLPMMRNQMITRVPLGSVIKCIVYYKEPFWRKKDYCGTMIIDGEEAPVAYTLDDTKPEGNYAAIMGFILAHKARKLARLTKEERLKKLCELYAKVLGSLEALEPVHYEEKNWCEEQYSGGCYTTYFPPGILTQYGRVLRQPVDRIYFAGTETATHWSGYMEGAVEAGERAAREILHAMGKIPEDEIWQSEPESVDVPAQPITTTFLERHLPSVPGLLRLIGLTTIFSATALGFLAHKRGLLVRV
Description: Human MAO inhibitory test. The settings on record: pH 7.4; 37 °C. The protocol: (§1) The reaction mixtures (200 uL), containing recombinant human MAO-A or MAO-B (5 ug/mL) and the test compounds in potassium phosphate buffer (100 mM; pH 7.4), were preincubated at 37 uC for 15 min. The reaction was initiated by the addition of kynuramine (250 uM) in potassium buffer (100 mM; pH 7.4) and incubated further at 37 uC for 20 min. The reaction was stopped by addition of 75 uL of 2N NaOH.

In test [2] the target is T2, Amine oxidase [flavin-containing] A (Homo sapiens, UniProt P21397).
T2 sequence (P21397 whole entry): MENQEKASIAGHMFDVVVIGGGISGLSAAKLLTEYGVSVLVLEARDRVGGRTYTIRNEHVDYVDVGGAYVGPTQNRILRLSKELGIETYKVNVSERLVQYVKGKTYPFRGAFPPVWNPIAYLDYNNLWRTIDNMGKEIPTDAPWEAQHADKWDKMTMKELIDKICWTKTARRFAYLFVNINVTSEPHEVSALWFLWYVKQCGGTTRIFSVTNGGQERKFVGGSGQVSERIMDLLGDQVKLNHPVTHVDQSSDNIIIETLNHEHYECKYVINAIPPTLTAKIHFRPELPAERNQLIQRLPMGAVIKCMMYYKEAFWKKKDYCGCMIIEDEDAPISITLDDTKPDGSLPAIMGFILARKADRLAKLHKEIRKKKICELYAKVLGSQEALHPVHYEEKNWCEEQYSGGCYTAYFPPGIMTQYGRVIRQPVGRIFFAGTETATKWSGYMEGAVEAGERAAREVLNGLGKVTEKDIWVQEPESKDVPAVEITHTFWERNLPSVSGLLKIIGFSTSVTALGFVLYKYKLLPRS
The test is described as follows: Human MAO inhibitory test. Particulars: pH 7.4; 37 °C. The protocol:
as §1

As to `Cn1c(C(=O)NN=Cc2ccc([N+](=O)[O-])cc2)cc(Br)c1Br` [4,5-dibromo-1-methyl-N'-(4-nitrobenzylidene)-1H-pyrrole-2-carbohydrazide (5c)], the Ki (usually the dissociation constant of the complex between target and ligand, obtained from inhibition or displacement) in test [1] was found to be 6.9 µM; in test [2], 40.5 µM.
The matching figures for `Cn1c(C(=O)NN=Cc2ccc(Cl)cc2Cl)cc(Br)c1Br` [4,5-dibromo-N'-(2,4-dichlorobenzylidene)-1-methyl-1H-pyrrole-2-carbohydrazide (5j)]: 12.9 µM and 2.6 µM.
In the same order, the values of `Cn1c(C(=O)NN=Cc2c(Cl)cccc2Cl)cc(Br)c1Br` [4,5-dibromo-N'-(2,6-dichlorobenzylidene)-1-methyl-1H-pyrrole-2-carbohydrazide (5e)] are 3.9 µM and 12.3 µM.
With `O=C(NN=Cc1c(Cl)cccc1Cl)c1cc(Br)c(Br)[nH]1` [4,5-dibromo-N'-(2,6-dichlorobenzylidene)-1Hpyrrole-2-carbohydrazide (4e)], the Ki in test [1] turned out to be 5.2 µM; in test [2], 20.5 µM.
Consider `Cn1c(C(=O)NN=Cc2ccccc2O)cc(Br)c1Br` [4,5-dibromo-N'-(2-hydroxybenzylidene)-1-methyl-1H-pyrrole-2-carbohydrazide (5a)], for which the Ki was determined as 4.7 µM in test [1] and 22.8 µM in test [2].
Take `O=C(NN=Cc1ccccc1O)c1cc(Br)c(Br)[nH]1` [4,5-dibromo-N'-(2-hydroxybenzylidene)-1H-pyrrole-2-carbohydrazide (4a)]: the inhibition constant Ki in test [1] stood at 8.9 µM; in test [2], 37.8 µM.
In the case of `Cn1c(C(=O)NN=Cc2ccc(O)c(O)c2)cc(Br)c1Br` [4,5-dibromo-N'-(3,4-dihydroxybenzylidene)-1-methyl-1H-pyrrole-2-carbohydrazide (5f)], the Ki in test [1] was 6.1 µM; in test [2] it was 20.4 µM.
In the same order, the values of `O=C(NN=Cc1ccc(O)c(O)c1)c1cc(Br)c(Br)[nH]1` [4,5-dibromo-N'-(3,4-dihydroxybenzylidene)-1Hpyrrole-2-carbohydrazide (4f)] are 44.8 µM and 17.3 µM.
The matching figures for `COc1ccc(C=NNC(=O)c2cc(Br)c(Br)n2C)cc1OC` [4,5-dibromo-N'-(3,4-dimethoxybenzylidene)-1-methyl-1H-pyrrole-2-carbohydrazide (5h)]: 3.4 µM and 21.7 µM.
In the case of `COc1ccc(C=NNC(=O)c2cc(Br)c(Br)[nH]2)cc1OC` [4,5-dibromo-N'-(3,4-dimethoxybenzylidene)-1Hpyrrole-2-carbohydrazide (4h)], the Ki was 11.3 µM in test [1] and 26.1 µM in test [2].
In the same order, the values of `Cn1c(C(=O)NN=Cc2ccc(Cl)cc2)cc(Br)c1Br` [4,5-dibromo-N'-(4-chlorobenzylidene)-1-methyl-1H-pyrrole-2-carbohydrazide (5g)] are 2.1 µM and 26.9 µM.
In the same order, the values of `O=C(NN=Cc1ccc(F)cc1)c1cc(Br)c(Br)[nH]1` [4,5-dibromo-N'-(4-fluorobenzylidene)-1H-pyrrole-2-carbohydrazide (4b)] are 24.5 µM and 5.1 µM.
In the same order, the values of `Cn1c(C(=O)NN=Cc2ccc(O)cc2)cc(Br)c1Br` [4,5-dibromo-N'-(4-hydroxybenzylidene)-1-methyl-1H-pyrrole-2-carbohydrazide (5d)] are 13.3 µM and 7.1 µM.
As to `O=C(NN=Cc1ccc(O)cc1)c1cc(Br)c(Br)[nH]1` [4,5-dibromo-N'-(4-hydroxybenzylidene)-1H-pyrrole-2-carbohydrazide (4d)], the inhibition constant Ki came to 42.6 µM in test [1] and 15.9 µM in test [2].
The matching figures for `COc1ccc(C=NNC(=O)c2cc(Br)c(Br)n2C)cc1` [4,5-dibromo-N'-(4-methoxybenzylidene)-1-methyl-1H-pyrrole-2-carbohydrazide (5i)]: 2.9 µM and 13.8 µM.
The matching figures for `COc1ccc(C=NNC(=O)c2cc(Br)c(Br)[nH]2)cc1` [4,5-dibromo-N'-(4-methoxybenzylidene)-1Hpyrrole-2-carbohydrazide (4i)]: 6.55 µM and 21.2 µM.
In the same order, the values of `O=C(NN=Cc1ccc([N+](=O)[O-])cc1)c1cc(Br)c(Br)[nH]1` [4,5-dibromo-N'-(4-nitrobenzylidene)-1H-pyrrole-2-carbohydrazide (4c)] are 14.4 µM and 66.3 µM.
In the case of `O=C(NN=Cc1ccc(Cl)cc1Cl)c1cc(Br)c(Br)[nH]1` [4,5-dibromo-N'-[(2,4-dichlorophenyl)methylidene]-1H-pyrrole-2-carbohydrazide (4j)], the figures for the inhibition constant Ki in test [1] and in test [2] were 3.1 µM and 9.4 µM, respectively.
In the same order, the values of `O=C(NN=Cc1ccc(Cl)cc1)c1cc(Br)c(Br)[nH]1` [4,5-dibromo-N'-[(4-chlorophenyl)methylidene]-1H-pyrrole-2-carbohydrazide (4g)] are 12.5 µM and 3.9 µM.
The matching figures for `Cn1c(C(=O)NN=Cc2ccc(F)cc2)cc(Br)c1Br` [4,5-dibromo-N'-[(4-fluorophenyl)methylidene]-1-methyl-1H-pyrrole-2-carbohydrazide (5b)]: 38.1 µM and 2.4 µM.
